In paper PMC6921082, “Molecular Characterization of a Novel Cold-Active Hormone-Sensitive Lipase (HaHSL) from Halocynthiibacter Arcticus” (Biomolecules, 2019) one finds Km data, which are given here for three compounds.

For the test, the target named is T1, HaHSL (Falsihalocynthiibacter arcticus, UniProt A0A126UZB4).
T1 construct: gene RC74_09005; full-length ORF (789 bp); mass peak 31,740; monomer; catalytic Ser138, Glu216, His244
T1 sequence (A0A126UZB4 entry or part of it): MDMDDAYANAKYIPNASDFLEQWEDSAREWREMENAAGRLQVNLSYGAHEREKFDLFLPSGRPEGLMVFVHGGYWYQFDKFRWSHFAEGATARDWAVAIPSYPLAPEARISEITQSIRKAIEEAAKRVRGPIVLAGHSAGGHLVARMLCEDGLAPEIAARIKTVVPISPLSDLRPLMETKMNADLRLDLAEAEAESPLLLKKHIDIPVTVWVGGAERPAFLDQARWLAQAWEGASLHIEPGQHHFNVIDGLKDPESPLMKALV
Description: p-nitrophenol release at […] nm, Lineweaver-Burk. The test is classed as biochemical. The following applies: free enzyme; 20 mM Tris-HCl, 100 mM NaCl, pH 7.4 (spectroscopic analyses); standard assay pH 8.0, 25 °C.
The Km is the concentration of substrate that gives half-maximal velocity. Take `CC(=O)Oc1ccc([N+](=O)[O-])cc1` [p-nitrophenyl acetate]: the Michaelis-Menten constant (Km) came out at 210 µM.

For the compound `CCCC(=O)Oc1ccc([N+](=O)[O-])cc1` [p-nitrophenyl butyrate], the Km is 1970 ± 530 µM.

As to `CCCCCC(=O)Oc1ccc([N+](=O)[O-])cc1` [p-nitrophenyl hexanoate], the Km is 2320 ± 630 µM.
